Measured values published in patent publication US6864251B2, “Treatment of LTB4-mediated inflammatory disorders with optically-pure (R)-2,3-benzodiazepines” (Vela Pharmaceuticals, Inc., priority 2002, dated 2005).

What was measured:
[1] = tested on: DSS-induced colitis; assay: Dextran sulfate sodium induced colitis: mouse model of inflammatory bowel disease; format: in vivo, Swiss Webster mice; settings: for Mean colon length CM ± SEM / Mean weight ± SEM, Day 0 / % weight change ± SEM, Day 8 / Mean weight ± SEM, Day 8 / % weight change ± SEM, Day 9 / Mean weight ± SEM, Day 9 / % weight change ± SEM, Day 10 / Mean weight ± SEM, Day 10 / Mean DAI* ± SEM / inhibition at 16 mg/kg / inhibition at 32 mg/kg / inhibition at 64 mg/kg / % of normal length: DSS 5%; for Mean DAI ± SEM: DSS 5% in tap water; for Mean DAI* ± SEM: DAI without weight loss parameter; for inhibition at 16 mg/kg / inhibition at 32 mg/kg / inhibition at 64 mg/kg: Mus musculus, read-out: Colon shortening inhib. %; for % of normal length: colon length
Experimental: In this model of colitis, an acute inflammation of the colon was produced by administration of dextran sulfate sodium (DSS) as a 5% solution in tap water. This colitis was characterized by histological events and an influx of neutrophils, macrophages and mediators of inflammation similar to those observed with human inflammatory bowel diseases. […] The following study was conducted in accordance with protocols of Okayasu et al., Gastroenterology, 98:694-702, 1990.
One hundred ten test animals (female, 6 week old Swiss Webster mice, 18-30 g) were divided into ten groups, selected to eliminate any statistical differences in mean group weight.
Each animal was dosed daily (IP) with either a test substance or vehicle, starting on Day 0. Beginning on Day 1, acute colon inflammation was induced by the administration ad libitum in drinking water of dextran sulfate sodium (DSS) as a 5% solution in tap water (10 mL/mouse/day for 5-6 days), with no other fluid source for animals in the DSS arm of the study. Filtered tap water was available ad libitum except for animals receiving 5% DSS as the sole source of fluid. After four days, signs of acute disease occured with the loss of weight, diarrhea and bloody stools. Histological changes included initial shortening of the crypts, then areas of separation of the crypts and the muscularis mucosae in the absence of destructive inflammatory filtrate. After five days, pathological changes became confluent with the appearance of erosions and early hyperplastic epithelium. Inflammation scores were high with neutrophils, lymphocytes, and plasma cells in the lamina propria but sparing the epithelium.
Test compounds were administered intraperitoneally (IP). Test compounds given during this period were evaluated for prophylactic activity and test compounds given after the disease state was established were evaluated for therapeutic activity.
Test animals were weighed daily from Day 0 to Day 8, or until completion of the study. The total duration of the study with DSS arm of the study was varied depending on the time progress of colitis. The condition of the test animals and consistency of stools was noted.
At the conclusion of the study, test animals were euthanized (CO2), a midline incision was made and a stool sample was obtained. The sample was placed on a slide and tested for occult blood (Quic-Cult™, Laboratory Diagnostics Co., Morganville, N.J.). Occult blood was determined by placing two drops of the reagent onto the sample and observing any color change. Occult blood presence was graded using a scoring protocol assigning a score of 0 for no color; 1 for a very light blue color (+/−) forming in >30 seconds; 2 for a blue color developing in 30 seconds or more (+); 3 for a change in color occurring in less than 30 seconds (++); and 4 for gross blood observable on the slide. The colon was gently stretched and the length from the colon-cecal junction to the end of the distal rectum was measured to the nearest 0.1 cm.
The scores for each test animal were added and then divided by three to give a DAI score for each animal.

[2] = tested on: central BZ receptors; settings: cited from earlier work
[3] = molecular target: peripheral BZ receptors (Homo sapiens, UniProt P30536); settings: cited from earlier work
Sequence of peripheral BZ receptors (P30536 whole entry): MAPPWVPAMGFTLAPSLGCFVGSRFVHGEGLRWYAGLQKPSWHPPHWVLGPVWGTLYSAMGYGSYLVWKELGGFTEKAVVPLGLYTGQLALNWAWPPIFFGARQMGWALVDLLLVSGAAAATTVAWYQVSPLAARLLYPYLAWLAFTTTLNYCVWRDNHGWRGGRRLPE

[4] = tested on: lymphocyte; settings: in vitro; cited from earlier work
[5] = tested on: IL-2 production; settings: in vitro; cited from earlier work

SMILES	Mean colon length CM ± SEM ([1]; 16 mg/kg IP daily)	Mean DAI ± SEM ([1]; 16 mg/kg IP daily)	Mean weight ± SEM, Day 0 ([1]; 16 mg/kg IP daily)	% weight change ± SEM, Day 8 ([1]; 16 mg/kg IP daily)	Mean weight ± SEM, Day 8 ([1]; 16 mg/kg IP daily)	% weight change ± SEM, Day 9 ([1]; 16 mg/kg IP daily)	Mean weight ± SEM, Day 9 ([1]; 16 mg/kg IP daily)	% weight change ± SEM, Day 10 ([1]; 16 mg/kg IP daily)	Mean weight ± SEM, Day 10 ([1]; 16 mg/kg IP daily)	Mean colon length CM ± SEM ([1]; 32 mg/kg IP daily)	Mean DAI ± SEM ([1]; 32 mg/kg IP daily)	Mean weight ± SEM, Day 0 ([1]; 32 mg/kg IP daily)	% weight change ± SEM, Day 8 ([1]; 32 mg/kg IP daily)	Mean weight ± SEM, Day 8 ([1]; 32 mg/kg IP daily)	% weight change ± SEM, Day 9 ([1]; 32 mg/kg IP daily)	Mean weight ± SEM, Day 9 ([1]; 32 mg/kg IP daily)	% weight change ± SEM, Day 10 ([1]; 32 mg/kg IP daily)	Mean weight ± SEM, Day 10 ([1]; 32 mg/kg IP daily)	Mean colon length CM ± SEM ([1]; 64 mg/kg IP daily)	Mean DAI ± SEM ([1]; 64 mg/kg IP daily)	also measured
CC[C@@H]1C(C)=NN=C(c2ccc(OC)c(OC)c2)c2cc(OC)c(OC)cc21 [(S)-tofisopam, (S)-1-(3,4-dimethoxyphenyl)-4-methyl-5-ethyl-7,8-dimethoxy-5H-2,3-benzodiazepine]	8.4 ± 0.19 CM	2.37 ± 0.24	26.0 ± 0.4 g	0.0 ± 1.5%	26.0 ± 0.5 g	1.5 ± 1.5%	25.6 ± 0.5 g	5.4 ± 1.6%	24.6 ± 0.6 g	8.1 ± 0.19 CM	3.07 ± 0.25	25.9 ± 0.4 g	3.0 ± 0.6%	25.1 ± 0.6 g	4.9 ± 2.4%	24.6 ± 0.6 g	10.4 ± 3.2%	23.2 ± 0.9 g	8.2 ± 0.20 CM	2.78 ± 0.27	Mean weight ± SEM, Day 0 ([1]; 64 mg/kg IP daily): 25.9 ± 0.4 g; % weight change ± SEM, Day 8 ([1]; 64 mg/kg IP daily): 1.2 ± 1.5%; Mean weight ± SEM, Day 8 ([1]; 64 mg/kg IP daily): 25.8 ± 0.6 g; % weight change ± SEM, Day 9 ([1]; 64 mg/kg IP daily): 6.9 ± 1.8%; Mean weight ± SEM, Day 9 ([1]; 64 mg/kg IP daily): 24.1 ± 0.5 g; % weight change ± SEM, Day 10 ([1]; 64 mg/kg IP daily): 10.4 ± 1.7%; Mean weight ± SEM, Day 10 ([1]; 64 mg/kg IP daily): 23.2 ± 0.6 g; Mean DAI* ± SEM ([1]; 16 mg/kg IP daily): 2.85 ± 0.18; Mean DAI* ± SEM ([1]; 32 mg/kg IP daily): 3.60 ± 0.30; Mean DAI* ± SEM ([1]; 64 mg/kg IP daily): 2.94 ± 0.24; inhibition at 16 mg/kg ([1]; 16 mg/kg IP daily): 11%; inhibition at 32 mg/kg ([1]; 32 mg/kg IP daily): 4%; inhibition at 64 mg/kg ([1]; 64 mg/kg IP daily): 7%; % of normal length ([1]; 16 mg/kg IP daily): 67.3%; % of normal length ([1]; 32 mg/kg IP daily): 64.9%; % of normal length ([1]; 64 mg/kg IP daily): 65.4%
CC[C@H]1C(C)=NN=C(c2ccc(OC)c(OC)c2)c2cc(OC)c(OC)cc21 [(R)-tofisopam, (R)-1-(3,4-dimethoxyphenyl)-4-methyl-5-ethyl-7,8-dimethoxy-5H-2,3-benzodiazepine]	9.0 ± 0.28 CM	2.22 ± 0.34	26.1 ± 0.5 g	0.0 ± 1.4%	26.1 ± 0.6 g	3.3 ± 1.8%	25.2 ± 0.6 g	5.4 ± 3.4%	24.7 ± 1.0 g	8.9 ± 0.41 CM	2.33 ± 0.28	25.0 ± 0.4 g	0.8 ± 1.6%	26.2 ± 0.4 g	1.9 ± 2.1%	25.5 ± 0.6 g	4.4 ± 2.1%	24.6 ± 0.6 g	9.8 ± 0.35 CM	1.73 ± 0.27^1	Protection from the LTB4-mediated inflammatory responses to DSS-induced colitis ([1]; 64 mg per kg, based on colon length and DAI): significant protection; Mean weight ± SEM, Day 0 ([1]; 64 mg/kg IP daily): 26.2 ± 0.5 g; % weight change ± SEM, Day 8 ([1]; 64 mg/kg IP daily): 0.1 ± 1.9%; Mean weight ± SEM, Day 8 ([1]; 64 mg/kg IP daily): 26.2 ± 0.5 g; % weight change ± SEM, Day 9 ([1]; 64 mg/kg IP daily): 2.9 ± 1.9%; Mean weight ± SEM, Day 9 ([1]; 64 mg/kg IP daily): 25.4 ± 0.5 g; % weight change ± SEM, Day 10 ([1]; 64 mg/kg IP daily): 2.8 ± 2.5%; Mean weight ± SEM, Day 10 ([1]; 64 mg/kg IP daily): 25.4 ± 0.5 g; Mean DAI* ± SEM ([1]; 16 mg/kg IP daily): 2.61 ± 0.37; Mean DAI* ± SEM ([1]; 32 mg/kg IP daily): 2.75 ± 0.26; Mean DAI* ± SEM ([1]; 64 mg/kg IP daily): 2.20 ± 0.26^1; inhibition at 16 mg/kg ([1]; 16 mg/kg IP daily): 24%; inhibition at 32 mg/kg ([1]; 32 mg/kg IP daily): 22%; inhibition at 64 mg/kg ([1]; 64 mg/kg IP daily): 41%; % of normal length ([1]; 16 mg/kg IP daily): 72.4%; % of normal length ([1]; 32 mg/kg IP daily): 71.3%; % of normal length ([1]; 64 mg/kg IP daily): 78.5%
CCC1C(C)=NN=C(c2ccc(OC)c(OC)c2)c2cc(OC)c(OC)cc21 (racemic) [Racemic tofisopam, Racemic-1-(3,4-dimethoxyphenyl)-4-methyl-5-ethyl-7,8-dimethoxy-5H-2,3-benzodiazepine]	8.2 ± 0.32 CM	2.59 ± 0.27	25.9 ± 0.4 g	3.1 ± 1.5%	25.1 ± 0.6 g	7.4 ± 2.5%	24.0 ± 0.8 g	13.3 ± 3.1%	22.5 ± 1.0 g	8.3 ± 0.11 CM	2.37 ± 0.33	26.1 ± 0.4 g	1.8 ± 1.5%	25.6 ± 0.4 g	5.3 ± 2.0%	24.7 ± 0.6 g	8.0 ± 2.4%	24.0 ± 0.7 g	8.2 ± 0.18 CM	2.87 ± 0.31	Mean weight ± SEM, Day 0 ([1]; 64 mg/kg IP daily): 25.8 ± 0.3 g; % weight change ± SEM, Day 8 ([1]; 64 mg/kg IP daily): 1.2 ± 2.1%; Mean weight ± SEM, Day 8 ([1]; 64 mg/kg IP daily): 25.5 ± 0.7 g; % weight change ± SEM, Day 9 ([1]; 64 mg/kg IP daily): 5.1 ± 2.5%; Mean weight ± SEM, Day 9 ([1]; 64 mg/kg IP daily): 24.5 ± 0.8 g; % weight change ± SEM, Day 10 ([1]; 64 mg/kg IP daily): 8.9 ± 3.1%; Mean weight ± SEM, Day 10 ([1]; 64 mg/kg IP daily): 23.5 ± 0.9 g; Mean DAI* ± SEM ([1]; 16 mg/kg IP daily): 2.61 ± 0.30; Mean DAI* ± SEM ([1]; 32 mg/kg IP daily): 2.65 ± 0.28; Mean DAI* ± SEM ([1]; 64 mg/kg IP daily): 3.25 ± 0.26; inhibition at 16 mg/kg ([1]; 16 mg/kg IP daily): 7%; inhibition at 32 mg/kg ([1]; 32 mg/kg IP daily): 9%; inhibition at 64 mg/kg ([1]; 64 mg/kg IP daily): 7%; % of normal length ([1]; 16 mg/kg IP daily): 65.4%; % of normal length ([1]; 32 mg/kg IP daily): 66.7%; % of normal length ([1]; 64 mg/kg IP daily): 65.5%; Interaction with central BZ receptors [2]: does not interact; Binding to peripheral BZ receptors [3]: binds only weakly; Mitogen-induced lymphocyte proliferation [4]: enhances; IL-2 production [5]: enhances
